Target: P. falciparum apicoplast DNA polymerase (Pf-apPOL) (Plasmodium falciparum, UniProt Q8ILY1)
Assay: Fluorescence-based high-throughput DNA polymerase assay (molecular beacon), primary screen and dose-response
Type: biochemical
Method: The HT assay employs a molecular beacon, a stem-loop DNA template with a Cy3 dye and the Black Hole Quencher on the 3′ and 5′ ends of the DNA, respectively. Pf-apPOL concentration is based on a calculated absorptivity of ε280 = 56750 M^−1 cm^−1. Reactions were carried out at 25 °C, using Corning 3575 […] (well-volume, 20 µL). Assays testing for compound inhibition composed of reaction buffer (pH 7.9 in 50 mM potassium acetate, 20 mM Tris-acetate and 10 mM magnesium acetate), Pf-apPOL (20 nM), DNA substrate (20 nM), dNTPs (6 µM), and compound (10 µM in DMSO). The DNA and nucleotide substrates (dNTPs) were at concentrations of 20 nM and 6 µM, respectively, in the assay. Pf-apPOL was incubated in the reaction buffer with dNTPs and the compound of interest (10 µM, in the assay) at 25 °C for 10 min. The DNA substrate was then added and the reaction was allowed to proceed for 90 min at 25 °C.
Each assay plate contained 16 negative controls (no Pf-apPOL, DMSO present) and 16 positive controls (Pf-apPOL present, no DMSO). The fluorescence of each well was determined using a BioTek Synergy Neo fluorescence plate reader using excitation and emission wavelengths of 555 and 570 nm, respectively.
In the above, Min is the average of fluorescence emission of the negative controls (substrate only), Max the average fluorescence emission from the positive controls (enzyme + substrate), and Test the emission from the assays in the presence of compounds (enzyme + compound + substrates). […] […] The IC50 of each compound was determined using Equation (2): (2) IC50= Vmax/(1+ (I/IC50)^n)
In the above, n measures cooperativity, with n > 1 indicating synergistic binding of more than a single molecule of the compound.
To identify apPOL inhibitors we utilised our previously developed high-throughput DNA polymerase assay. The HT assay is based on a molecular beacon DNA template that forms a stem-loop with a Cy3 dye and the Black Hole Quencher on the 3′ and 5′ ends of the DNA, respectively. DNA polymerase activity extends an annealed primer through the stem region, displacing the fluorophore from the quencher, thereby increasing its fluorescence (Figure 1(A)). The assay accurately recapitulates the kinetic behaviour of apPOL, as measured through more conventional low-throughput gel-based assays. The Z′ factor for the assay described here was 0.9 across all plates (data not shown).
Figure 1. High-throughput screening. (A) The fluorescent-based DNA polymerase assay used to screen the compound libraries. The DNA template strand is a hairpin loop with a primer annealed to the loop. The 3’ end of the primer is 11 bases away from the 6 bp duplex. Strand displacement activity of the DNA polymerase separates the Cy3 dye from the Black hole quencher leading to an increase in fluorescent signal. (B) The high-throughput assay workflow. The DNA polymerase is incubated with […] compound for 10 min prior to addition of the hairpin substrate. The reaction is quenched at 3 different time points and the fluorescent signal is measured and % inhibition is determined using the provided equation.

Chain of P. falciparum apicoplast DNA polymerase (Pf-apPOL) (Q8ILY1 entry or part of it): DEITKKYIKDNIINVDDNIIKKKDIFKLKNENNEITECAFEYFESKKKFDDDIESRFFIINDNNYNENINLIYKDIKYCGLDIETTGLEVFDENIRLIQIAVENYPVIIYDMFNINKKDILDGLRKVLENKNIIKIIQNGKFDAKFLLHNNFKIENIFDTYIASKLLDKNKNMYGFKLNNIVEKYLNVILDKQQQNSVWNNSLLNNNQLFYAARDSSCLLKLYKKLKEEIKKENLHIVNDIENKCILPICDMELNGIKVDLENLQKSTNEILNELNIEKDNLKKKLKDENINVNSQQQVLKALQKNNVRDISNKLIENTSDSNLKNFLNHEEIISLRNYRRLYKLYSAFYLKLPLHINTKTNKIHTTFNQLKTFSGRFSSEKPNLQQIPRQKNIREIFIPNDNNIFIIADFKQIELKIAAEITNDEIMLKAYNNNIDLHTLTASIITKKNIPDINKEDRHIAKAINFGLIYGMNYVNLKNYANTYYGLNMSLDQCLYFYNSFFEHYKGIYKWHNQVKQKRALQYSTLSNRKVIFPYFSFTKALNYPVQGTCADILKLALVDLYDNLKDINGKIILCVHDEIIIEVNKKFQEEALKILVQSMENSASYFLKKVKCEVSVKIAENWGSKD

CSCCC(C)(O)CNC(=O)C1CC1 (stereo not shown) [KU0200150]
DNA Pol ('DNA Pol'; screening value, unit not given; 90 min, 10 µM): 33 | % inhibition Apo pol 10' (DRC-1; 10'; concentration 2.5): 4.373% | % inhibition Apo pol 10' (DRC-1; 10'; concentration 5): 5.1384% | % inhibition Apo pol 10' (DRC-1; 10'; concentration 10): 19.1529% | % inhibition Apo pol 10' (DRC-1; 10'; concentration 20): 27.3456% | % inhibition Apo pol 10' (DRC-1; 10'; concentration 40): 40.4484% | % inhibition Apo pol 10' (DRC-1; 10'; concentration 80): 39.3482% | % inhibition Apol 90' (DRC-1; 90'; concentration 2.5): 7.582% | % inhibition Apol 90' (DRC-1; 90'; concentration 5): 12.5551% | % inhibition Apol 90' (DRC-1; 90'; concentration 10): 30.4266% | % inhibition Apol 90' (DRC-1; 90'; concentration 20): 38.5831% | % inhibition Apol 90' (DRC-1; 90'; concentration 40): 51.9729% | % inhibition Apol 90' (DRC-1; 90'; concentration 80): 47.9472% | % inhibition apPOL 180' (DRC-1; 180'; concentration 2.5): 8.962% | % inhibition apPOL 180' (DRC-1; 180'; concentration 5): 14.7367% | % inhibition apPOL 180' (DRC-1; 180'; concentration 10): 36.1682% | % inhibition apPOL 180' (DRC-1; 180'; concentration 20): 43.4388% | % inhibition apPOL 180' (DRC-1; 180'; concentration 40): 54.9454% | % inhibition apPOL 180' (DRC-1; 180'; concentration 80): 46.3242% | % inhibition Apo pol 5' (DRC-2, 5', concentration 2.5): 0.182% | % inhibition Apo pol 5' (DRC-2, 5', concentration 5): 4.75% | % inhibition Apo pol 5' (DRC-2, 5', concentration 10): 22% | % inhibition Apo pol 5' (DRC-2, 5', concentration 20): 24% | % inhibition Apo pol 5' (DRC-2, 5', concentration 40): 29% | % inhibition Apo pol 5' (DRC-2, 5', concentration 80): 27% | % inhibition Apol 40' (DRC-2, 40', concentration 2.5): 3.34% | % inhibition Apol 40' (DRC-2, 40', concentration 5): 11% | % inhibition Apol 40' (DRC-2, 40', concentration 10): 28% | % inhibition Apol 40' (DRC-2, 40', concentration 20): 33% | % inhibition Apol 40' (DRC-2, 40', concentration 40): 41% | % inhibition Apol 40' (DRC-2, 40', concentration 80): 41% | % inhibition ApPOL 90' (DRC-2, 90', concentration 2.5): 3.4% | % inhibition ApPOL 90' (DRC-2, 90', concentration 5): 11% | % inhibition ApPOL 90' (DRC-2, 90', concentration 10): 27% | % inhibition ApPOL 90' (DRC-2, 90', concentration 20): 30% | % inhibition ApPOL 90' (DRC-2, 90', concentration 40): 42% | % inhibition ApPOL 90' (DRC-2, 90', concentration 80): 41% | % inhibition apPOL 180' (DRC-2, 180', concentration 2.5): 0.149% | % inhibition apPOL 180' (DRC-2, 180', concentration 5): 5% | % inhibition apPOL 180' (DRC-2, 180', concentration 10): 17% | % inhibition apPOL 180' (DRC-2, 180', concentration 20): 18% | % inhibition apPOL 180' (DRC-2, 180', concentration 40): 32% | % inhibition apPOL 180' (DRC-2, 180', concentration 80): 32% | % inhibition Apol 40' (conc 5 (unit not given); 40'; DRC-2): 11% | % inhibition ApPOL 90' (conc 5 (unit not given); 90'; DRC-2): 11% | % inhibition ApPOL 90' (conc 10 (unit not given); 90'; DRC-2): 27% | % inhibition Apol 40' (conc 40 (unit not given); 40'; DRC-2): 41% | % inhibition apPOL 180' (conc 40 (unit not given); 180'; DRC-2): 32% | % inhibition Apo pol 5' (conc 80 (unit not given); 5'; DRC-2): 27% | % inhibition Apol 40' (conc 80 (unit not given); 40'; DRC-2): 41% | % inhibition ApPOL 90' (conc 80 (unit not given); 90'; DRC-2): 41% | % inhibition apPOL 180' (conc 80 (unit not given); 180'; DRC-2): 32% | DNA Pol (primary screen hit value, DNA Pol (186 hits); 90 min, 10 µM): 33

Nc1ncnc(NC2CCCCC2)c1[N+](=O)[O-] [KU0193018]
% inhibition Apo pol 10' (DRC-1; concentration 2.5; 10'): -4.033% | % inhibition Apol 90' (DRC-1; concentration 2.5; 90'): 1.71% | % inhibition apPOL 180' (DRC-1; concentration 2.5; 180'): 7.961% | % inhibition Apo pol 10' (DRC-1; concentration 5; 10'): -4.7638% | % inhibition Apol 90' (DRC-1; concentration 5; 90'): 3.18% | % inhibition apPOL 180' (DRC-1; concentration 5; 180'): 11.4393% | % inhibition Apo pol 10' (DRC-1; concentration 10; 10'): 7.571% | % inhibition Apol 90' (DRC-1; concentration 10; 90'): 18.3925% | % inhibition apPOL 180' (DRC-1; concentration 10; 180'): 32.1574% | % inhibition Apo pol 10' (DRC-1; concentration 20; 10'): 20.9545% | % inhibition Apol 90' (DRC-1; concentration 20; 90'): 38.4286% | % inhibition apPOL 180' (DRC-1; concentration 20; 180'): 56.6751% | % inhibition Apo pol 10' (DRC-1; concentration 40; 10'): 53.9116% | % inhibition Apol 90' (DRC-1; concentration 40; 90'): 70.3163% | % inhibition apPOL 180' (DRC-1; concentration 40; 180'): 83.6838% | % inhibition Apo pol 10' (DRC-1; concentration 80 (unit not given); 10'): 70.2616% | % inhibition Apol 90' (DRC-1; concentration 80; 90'): 82.4548% | % inhibition apPOL 180' (DRC-1; concentration 80; 180'): 91.4179% | % inhibition Apo pol 5' (DRC-2; concentration 2.5; 5'): -2.47% | % inhibition Apol 40' (DRC-2; concentration 2.5; 40'): -1.57% | % inhibition ApPOL 90' (DRC-2; concentration 2.5; 90'): -2.42% | % inhibition apPOL 180' (DRC-2; concentration 2.5; 180'): -6.58% | % inhibition Apo pol 5' (DRC-2; concentration 5; 5'): 4% | % inhibition Apol 40' (DRC-2; concentration 5; 40'): 3.32% | % inhibition ApPOL 90' (DRC-2; concentration 5; 90'): 2.51% | % inhibition apPOL 180' (DRC-2; concentration 5; 180'): -3.38% | % inhibition Apo pol 5' (DRC-2; concentration 10; 5'): 20% | % inhibition Apol 40' (DRC-2; concentration 10; 40'): 19% | % inhibition ApPOL 90' (DRC-2; concentration 10; 90'): 15% | % inhibition apPOL 180' (DRC-2; concentration 10; 180'): 6% | % inhibition Apo pol 5' (DRC-2; concentration 20; 5'): 37% | % inhibition Apol 40' (DRC-2; concentration 20; 40'): 42% | % inhibition ApPOL 90' (DRC-2; concentration 20; 90'): 38% | % inhibition apPOL 180' (DRC-2; concentration 20; 180'): 26% | % inhibition Apo pol 5' (DRC-2; concentration 40; 5'): 50% | % inhibition Apol 40' (DRC-2; concentration 40; 40'): 64% | % inhibition ApPOL 90' (DRC-2; concentration 40; 90'): 63% | % inhibition apPOL 180' (DRC-2; concentration 40; 180'): 55% | % inhibition Apo pol 5' (DRC-2; concentration 80; 5'): 52% | % inhibition Apol 40' (DRC-2; concentration 80; 40'): 71% | % inhibition ApPOL 90' (DRC-2; concentration 80; 90'): 72% | % inhibition apPOL 180' (DRC-2; concentration 80; 180'): 69% | DNA Pol (primary screen value of the 186 hits; unit not given; 90 min, 10 µM): 25 | DNA Pol (primary screen value; head prints only 'DNA Pol'; 90 min, 10 µM): 25
